Literature values, collected in patent US7659260B2, “Tamponade compositions and methods for retinal repair” (priority 2005, dated 2010).

Columns and labels:
[1] = at 25° C.
[2] = reportedly; unless ingested in very large amounts

## [2H]O[2H] [Heavy water, deuterium-containing heavy water (D2O)]
[1]
  relative density: 1.1044
[2]
  toxicity: non-toxic, unless ingested in very large amounts
